Laboratory results taken from US20260200849A1, “CATIONIC LIPIDS AND PREPARATION METHOD THEREOF” (RiboX Therapeutics HK Limited, priority 2024, published 2026).

Experiments:
Balb/c mice = experiment: In vivo expression by IV, 0.05 mg/kg luciferase RNA-LNPs, IVIS luminescence; details: Formulation No. 001, RNA No. 331; female Balb/c mice, 0.05 mg*kg−1 intravenous, 24-hours post injection
Protocol: (§1) 7-8 week old, female Balb/c mice (N=3) were injected with 0.05 mg*kg−1 of RNA-LNPs encoding for firefly-luciferase by intravenous injection. At 24- and 72-hours post injection, animals were intraperitoneally injected with 15 mg/mi of Luciferin substrate and whole-body luminescence was determined by a bioluminescent in vivo imaging system (IVIS).
as §1, with “24-hours” for “24- and 72-hours”, “mg/ml” for “mg/mi”, “whole-body/liver/spleen” for “whole-body”

[1] = RNA encapsulation efficacy (EE %) by Quant-IT Ribogreen kit; format: physicochemical; details: LNP, Formulation No. 001, RNA No. 331
Protocol: (§2) The LNP size and polydispersity index (PDI), determined by dynamic light scattering (DLS), and zeta potential were measured by a Zetasizer machine (Malvern). RNA concentration and encapsulation efficacy (EE %) were analyzed by the Quant-IT Ribogreen kit by calculating the percentage encapsulation at 100%—(RNA-LNPs/RNA-LNPs with Triton X-100).

MCP-1 = experiment: In vivo tolerability by IV: serum MCP-1 by Luminex; set-up: species or system C57BL/6J mice; details: Formulation No. 001, RNA No. 331, male C57BL/6J mice, 1.0 mg*kg/1 intravenous; for MCP-1 at 2 h: 2 hours post injection; for MCP-1 at 24 h: 24 hours post injection
Protocol: (§3) 6-8 week old, male C57BL/6J mice (N=3) were injected with 1.0 mg*kg/1 of RNA-LNPs encoding for firefly-luciferase by intravenous injection. At 2- and 24-hours post injection, about 40 μL blood was harvested and immediately added to the procoagulant containing tube. Stand for 30 min at room temperature and then centrifuged at 2500 g×10 min to obtain serum. About 15 μL serum samples were aliquoted for cytokine (MCP-1 and IL-6) detection by Luminex (ProcartaPlex Mouse 2-plex, Thermo). PBS group as negative control.
as §3, with “mg*kg−1” for “mg*kg/1”

Hep G2 cells [2] = experiment: In vitro expression: luciferase activity in Hep G2 cells transfected with RNA-LNPs; format: cell-based; details: Formulation No. 001, RNA No. 331 (firefly-luciferase), 100 ng/mL RNA-LNPs, 72 hours post transfection
Protocol: 2E5 Hep G2 cells were transfected with 100 ng/mL of RNA-LNPs encoding for firefly-luciferase. At 72 hours post transfection, the cells were washed and lysed. The luciferase expression (2-well repeat) was determined in the cell lysates with the luciferase assay reagent kit (Promega), according to the kit protocol, luciferase activity was measured by a luminometer.

[3] = LNP size and polydispersity index (PDI) by dynamic light scattering (Zetasizer); format: physicochemical; details: for Size (nm): Formulation No. 001 (Ionizable lipid:DSPC:cholesterol:DMG-PEG2000 = 50:10:38.5:1.5, N/P 6), RNA No. 331; for PDI: Formulation No. 001, RNA No. 331
Protocol: as §2

C57BL/6J mice = experiment: In vivo expression by IV, 1.0 mg/kg luciferase RNA-LNPs, whole-body and organ IVIS luminescence; details: Formulation No. 001, RNA No. 331; male C57BL/6J mice, 1.0 mg*kg−1 intravenous, 24-hours post injection
Protocol: (§4) 6-8 week old, male C57BL/6J mice (N=3) were injected with 1.0 mg*kg−1 of RNA-LNPs encoding for firefly-luciferase by intravenous injection. At 24-hours post injection, animals were intraperitoneally injected with 15 mg/ml of Luciferin substrate and whole-body/liver/spleen/kidney/small intestine/large intestine luminescence were determined by a bioluminescent in vivo imaging system (IVIS).
as §4, with “mg/nil” for “mg/ml”

Hep G2 cells [4] = experiment: In vitro toxicity: Hep G2 cell viability by CellTiter-Glo; format: cell-based; details: Formulation No. 001, RNA No. 331, 1 μg/mL RNA-LNPs, 72 hours post transfection, cell only = 100%
Protocol: 2E5 Hep G2 cells were transfected with 1 μg/mL RNA-LNPs. At 72 hours post transfection, cell viability (2-well repeat) was determined with the CellTiter-Glo® reagent kit, according to the kit protocol, measured by a luminometer. Cell only as control (100%).
The cell viability was calculated according to the following formula: […]

IL-6 = experiment: In vivo tolerability by IV: serum IL-6 by Luminex; set-up: species or system C57BL/6J mice; details: Formulation No. 001, RNA No. 331, male C57BL/6J mice, 1.0 mg*kg/1 intravenous; for IL-6 at 2 h: 2 hours post injection; for IL-6 at 24 h: 24 hours post injection
Protocol: as §3
as §3, with “mg*kg−1” for “mg*kg/1”

Structure (SMILES) | Liver (p/s) (Mean) (Balb/c mice) | Spleen (p/s) (Mean) (Balb/c mice) | Whole body (p/s) (Mean) (Balb/c mice) | EE (%) [1] [%] | MCP-1 at 2 h (MCP-1) [pg/mL] | MCP-1 at 24 h (MCP-1) [pg/mL] | In vitro Expression (Mean) (Hep G2 cells [2]) | Size (nm) [3] [nm] | PDI [3] | Kidney (p/s) (C57BL/6J mice) | Large intestine (p/s) (C57BL/6J mice) | Liver (p/s) (C57BL/6J mice) | Small intestine (p/s) (C57BL/6J mice) | Spleen (p/s) (C57BL/6J mice) | Whole body (p/s) (C57BL/6J mice) | In vitro cell viability (%) (Mean) (Hep G2 cells [4]) | IL-6 at 2 h (IL-6) [pg/mL] | IL-6 at 24 h (IL-6) [pg/mL]
CCCCCCCC/C=C\CCCCCCCC(=O)NC(COC(=O)NCCN1CCCCC1)C(=O)OCCCCCCCC(=O)OC(CCCCCCCC)CCCCCCCC (centres unmarked) [Lipid 736] | 2.87E+08 | 1.39E+08 | 2.08E+09 | 91.61 | 3830 | 260 | 7.05E+05 | 66.29 | 0.01 | 5.22E+07 | 1.78E+08 | 2.87E+09 | 6.48E+08 | 3.38E+08 | 5.28E+09 | 73.49 | 442 | 3.03
CCCCCCCC/C=C\CCCCCCCC(=O)NC(COC(=O)NCCN1CCCCC1)C(=O)OCCCCCC(=O)OCC(CCCCCCCC)CCCCCCCCCC (centres unmarked) [Lipid 792] | 2.90E+08 | 1.01E+08 | 2.18E+09 | 92.11 | 1620 | 216 | 8.10E+05 | 64.18 | 0.02 | 3.20E+07 | 8.04E+07 | 2.74E+09 | 5.01E+08 | 3.20E+08 | 2.76E+09 | 81.74 | 25.9 | 6.86
CCCCC/C=C\C/C=C\CCCCCCCCOC(=O)NC(COC(=O)NCCN1CCCCCC1)C(=O)OCCCCCCCC(=O)OC(CCCCCCCC)CCCCCCCC (centres unmarked) [Lipid 858] | 3.71E+08 | 6.61E+07 | 8.74E+08 | 91.60 | 1360 | 111 | 2.88E+05 | 63.50 | 0.04 | 2.31E+07 | 1.58E+08 | 8.64E+08 | 6.45E+08 | 2.33E+08 | 1.92E+09 | 92.44 | 23 | 3.13
CCCCC/C=C\C/C=C\CCCCCCCCOC(=O)NC(COC(=O)NCCN1CCCCCC1)C(=O)OCCCCCCCCOC(=O)C(CCCCCC)CCCCCCCC (centres unmarked) [Lipid 881] | 2.25E+08 | 6.14E+07 | 1.18E+09 | 90.26 | 1190 | 253 | 4.02E+05 | 61.73 | 0.02 | 4.26E+07 | 1.30E+08 | 1.65E+09 | 8.57E+08 | 2.37E+08 | 2.92E+09 | 86.94 | 12.8 | 6.69
CCCCCCCCC(CCCCCC)C(=O)OCCCCCCCCOC(=O)NC(COC(=O)NCCN(C)C)C(=O)OCCCCCCCCOC(=O)C(CCCCCC)CCCCCCCC (centres unmarked) [Lipid 883] | 1.59E+08 | 2.09E+07 | 1.60E+09 | 96.96 | 1860 | 220 | 2.82E+05 | 69.88 | 0.05 | 6.37E+06 | 3.50E+07 | 3.22E+09 | 1.46E+08 | 2.19E+08 | 1.65E+09 | 93.23 | 16.4 | 5.01
CCCCCCCCC(CCCCCCCC)OC(=O)CCCCCCCOC(=O)C(COC(=O)NCCN1CCCCCC1)NC(=O)OCCCCCCCCOC(=O)C(CCCCCC)CCCCCCCC (centres unmarked) [Lipid 897] | 1.67E+08 | 7.67E+07 | 8.36E+08 | 95.30 | – | – | 1.77E+05 | 60.19 | 0.04 | – | – | – | – | – | – | 88.39 | – | –
CCCCC/C=C\C/C=C\CCCCCCCCOC(=O)NC(COC(=O)NCCN1CCCC1)C(=O)OCCCCCC(=O)OCC(CCCCCCCC)CCCCCCCCCC (centres unmarked) [Lipid 909] | 7.57E+07 | 2.35E+07 | 7.25E+08 | 98.41 | – | – | 7.29E+04 | 74.26 | 0.02 | – | – | – | – | – | – | 94.80 | – | –
CCCCCCCCCCCOC(=O)NC(COC(=O)NCCN(C)C)C(=O)OCCCCCCCC(=O)OC(CCCCCCCC)CCCCCCCC (centres unmarked) [Lipid 912] | 1.67E+07 | 7.97E+06 | 8.26E+07 | 97.83 | – | – | 4.57E+04 | 74.18 | 0.03 | – | – | – | – | – | – | 92.96 | – | –
CCCCCCCCCC(=O)OCCCCCCCOC(=O)C(COC(=O)NCCN(C)C)NC(=O)OCCCCCCCCOC(=O)C(CCCCCC)CCCCCCCC (centres unmarked) [Lipid 930] | 3.49E+07 | 6.28E+06 | 1.31E+08 | 97.46 | – | – | 8.27E+03 | 92.24 | 0.04 | – | – | – | – | – | – | 92.08 | – | –
